Laboratory results from publication PMC4583543, “Development and Validation of a Novel Leishmania donovani Screening Cascade for High-Throughput Screening Using a Novel Axenic Assay with High Predictivity of Leishmanicidal Intracellular Activity” (PLoS Neglected Tropical Diseases, 2015).
Like-named read-outs stand apart in the source and are kept apart here.

What was measured:
[1] = tested on: eGFP expressing LdBOB amastigote-like cells in PMA differentiated THP-1 cells; assay: Intramacrophage (intracellular, INMAC) assay; format: cell-based, Leishmania donovani; settings: for EC50: Leishmania donovani
Experimental: (§1) Compounds were dispensed into 384-well assay plates by acoustic dispensing (LabCyte ECHO). […] Potencies are reported as pEC50 (-LOG(EC50[M])).
(§2) All data was processed using IDBS ActivityBase. […] Potency plates were normalised to DMSO control (0% effect) and 2μM amphotericin B control (100% effect). […] For compounds with low activity and poor definition of the curve top, B was fixed to 100. For the determination of the reference compound panel potency, all experiments were carried out with a minimum of three independent repeats.
(§3) The assay conditions are described previously. Briefly PMA differentiated THP-1 cells were infected overnight with eGFP expressing LdBOB amastigote-like cells at a multiplicity of infection of 5. Next, any remaining free amastigote-like cells are removed and compounds are added. The microscopy-based read-out is done after a four day compound incubation.

[2] = tested on: LdBOB axenic amastigote-like cells; assay: Novel (cidal) axenic amastigote assay, BacTiter-Glo read-out; format: cell-based, Leishmania donovani
Description: Leishmania donovani BOB cells (LdBOB) used in this study are a cloned line from strain MHOM/SD/62/1S-CL2 [13]. Cultures were maintained as described previously. Compounds were dispensed into 384-well assay plates by acoustic dispensing (LabCyte ECHO). […] Potencies are reported as pEC50 (-LOG(EC50[M])). All data was processed using IDBS ActivityBase. […] For compounds with low activity and poor definition of the curve top, B was fixed to 100. For the determination of the reference compound panel potency, all experiments were carried out with a minimum of three independent repeats. Test compounds were pre-dispensed into white 384 well plates (Corning). For library screens one compound per well was tested at the indicated final concentration. […] DMSO, zero percent effect control: cells at starting concentration. The zero percent effect control wells are left empty during the course of the assay. […] The assay volume is 25 μl / well. […] Plates were then sealed with clear film and relative luminescence was detected using a plate reader (Victor 3) from Perkin Elmer or PHERAstar FS from BMG LABTECH, with 0.5 s detection time per well).

[3] = tested on: HepG2 cells; assay: HepG2 assay (mammalian counterscreen, resazurin); format: cell-based, human; settings: for EC50: Homo sapiens, read-out: HepG2 (potency, pEC50) (converted)
Experimental: Compounds were dispensed into 384-well assay plates by acoustic dispensing (LabCyte ECHO). […] Potencies are reported as pEC50 (-LOG(EC50[M])). All data was processed using IDBS ActivityBase. […] For compounds with low activity and poor definition of the curve top, B was fixed to 100. For the determination of the reference compound panel potency, all experiments were carried out with a minimum of three independent repeats. The assay conditions are described previously.

[4] = tested on: THP-1 cells; assay: THP-1 host cell toxicity in the intramacrophage assay; format: cell-based, human; settings: for EC50: Homo sapiens
Experimental: as §1, §2, §3

[5] = THP-1, 96 h, reference compound panel, mean (standard deviation), minimum three independent repeats, four day incubation, read-out: Intramacrophage (potency, pEC50) (converted)
[6] = Leishmania donovani; read-out: Novel (axenic assay potency, pEC50) (converted)
[7] = HepG2, reference compound panel, mean (standard deviation), 72 h
[8] = THP-1, reference compound panel, mean (standard deviation), host cell toxicity, read-out: THP-1 (potency, pEC50) (converted)
[9] = THP-1, DOS library compounds, dose response, read-out: INMAC (intracellular) pEC50 (converted)
[10] = Leishmania donovani; DOS library compounds, ten-point dose response; read-out: cAX pEC50 (converted)
[11] = THP-1, DOS library compounds, dose response, read-out: THP1 pEC50 (converted)
[12] = single concentration screen at 25 μM

Compound	EC50 [1, 5]	EC50 [2, 6]	EC50 [3, 7]	EC50 [4, 8]	also measured
CSc1ccc(OCc2ncc([N+](=O)[O-])n2C)cc1 [Fexinidazole]	> 34.7 µM	11.5 µM	> 50.1 µM	> 34.7 µM	
CCCNC(=O)N1[C@H](C#N)[C@H](c2ccc(-c3cccnc3)cc2)[C@@H]1CO [BRD9157]					EC50 [1, 9]: 1.58 µM; EC50 [2, 10]: 12.6 µM; EC50 [4, 11]: > 50.1 µM
CCCNC(=O)N1[C@H](C#N)[C@@H](c2ccccc2-c2ccc(OC)cc2)[C@@H]1CO [BRD2647 RRS stereoisomer]					EC50 [1, 9]: 39.8 µM
CCCNC(=O)N1[C@H](CO)[C@@H](c2ccccc2-c2ccc(OC)cc2)[C@@H]1C#N [BRD2647 SSR stereoisomer]					activity in the initial HTS assay [2, 12]: inactive
OC(c1ccc(Cl)cc1)(c1cncnc1)c1ccccc1Cl (centres unmarked) [Fenarimol]	> 34.7 µM	> 50.1 µM	> 50.1 µM	> 34.7 µM	
N=C(N)c1ccc(OCCCCCOc2ccc(C(=N)N)cc2)cc1 [Pentamidine]	15.5 µM	8.71 µM	2.82 µM	> 34.7 µM	
CCCNC(=O)N1[C@H](CO)[C@H](c2ccccc2-c2ccc(OC)cc2)[C@@H]1C#N [BRD2647 SRR stereoisomer]					activity in the initial HTS assay [2, 12]: inactive
C[C@@]12C(=O)OC(=O)[C@]1(C)[C@H]1CC[C@@H]2O1 [Cantharidin]					EC50 ([1]; THP-1, 96 h, read-out: Intramacrophage (potency, pEC50) (converted)): 13.2 µM; EC50 ([2]; Leishmania donovani, read-out: Novel (axenic assay potency, pEC50) (converted)): 4.37 µM; EC50 ([3]; HepG2, 72 h): 1.35 µM; EC50 ([4]; THP-1, read-out: THP-1 (potency, pEC50) (converted)): 2.75 µM
NC(=O)c1cnccn1 [Pyrazinamide]	> 34.7 µM	> 50.1 µM	> 50.1 µM	> 34.7 µM	
CC[C@@H]([C@H](C)O)n1ncn(-c2ccc(N3CCN(c4ccc(OC[C@@H]5CO[C@@](Cn6cncn6)(c6ccc(F)cc6F)C5)cc4)CC3)cc2)c1=O [Posaconazole]	18.6 µM	36.3 µM	8.51 µM	17.8 µM	
C[C@@H]1[C@H](O)[C@@H](C)/C=C/C=C/CC/C=C/C=C/C=C/C=C/C(O[C@H]2O[C@H](C)[C@@H](O)[C@H](N)[C@@H]2O)CC2O[C@](O)(CC(O)C(O)CCC(O)CC(O)CC(O)CC(=O)O[C@H]1C)CC(O)C2C(=O)O (some centres unmarked) [Nystatin]					Intramacrophage (potency, pEC50) ([1]; reference compound panel, mean (standard deviation), minimum three independent repeats, four day incubation): 4.68 (0.5); Novel (axenic assay potency, pEC50) ([2]; reference compound panel; mean (standard deviation), minimum three independent repeats; top concentration 50 μM; pEC50 = -LOG(EC50[M])): 5.19 (0.21); HepG2 (potency, pEC50) ([3]; reference compound panel, mean (standard deviation), 72 h): < 4.3; THP-1 (potency, pEC50) ([4]; reference compound panel, mean (standard deviation), host cell toxicity): < 4.46
O=c1cc(-c2ccc(O)c(O)c2)oc2cc(O)cc(O)c12 [Luteolin]	28.2 µM	46.8 µM	24.5 µM	14.5 µM	
OC(c1cc(C(F)(F)F)nc2c(C(F)(F)F)cccc12)C1CCCCN1 (centres unmarked) [Mefloquine]	8.51 µM	> 50.1 µM	9.77 µM	12 µM	activity in words (intracellular versus novel axenic) ([1]; reference compound panel): only active in the intracellular assay
CCCNC(=O)N1[C@H](C#N)[C@H](c2ccc(C#Cc3ccc(F)cc3)cc2)[C@@H]1CO [BRD1184]					EC50 [1, 9]: 2 µM; EC50 [2, 10]: 0.631 µM; EC50 [4, 11]: 15.8 µM
C[C@@H]1[C@H](O)[C@@H](C)/C=C/C=C/C=C/C=C/C=C/C=C/C=C/[C@H](O[C@@H]2O[C@H](C)[C@@H](O)[C@H](N)[C@@H]2O)C[C@@H]2O[C@](O)(C[C@@H](O)C[C@@H](O)[C@H](O)CC[C@@H](O)C[C@@H](O)CC(=O)O[C@H]1C)C[C@H](O)[C@H]2C(=O)O [Amphotericin B]	0.24 µM	0.302 µM	> 50.1 µM	26.9 µM	EC50 ([2]; Leishmania donovani; control on each plate, run to run over extended time period; ± StDev; read-out: average pEC50 of plate control (converted)): 0.126 µM
CCCNC(=O)N1[C@H](C#N)[C@H](c2ccc(C#Cc3cccc(F)c3)cc2)[C@@H]1CO [BRD0645]					EC50 [1, 9]: 3.98 µM; EC50 [2, 10]: 0.794 µM; EC50 [4, 11]: > 50.1 µM
N=C(N)c1ccc(/N=N/Nc2ccc(C(=N)N)cc2)cc1 [Diminazene]	> 34.7 µM	11.7 µM	> 50.1 µM	> 34.7 µM	
CCCNC(=O)N1[C@@H](C#N)[C@@H](c2ccc(-c3cccc(OC)c3)cc2)[C@@H]1CO [BRD6650 RRR stereoisomer]					EC50 [1, 9]: 50.1 µM
